Values joined by “and” are separate entries in the source; they are usually repeats but may differ in a detail not shown here. Equal values may be shown once.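 1) Cells in 96-well plates. 2) Compound, 48 h, 5 concentrations. 3) Linear interpolation between surrounding doses. 4) Unreached endpoint = highest concentration. The concentration for 50% growth inhibition is given as GI50. TGI marks complete inhibition of growth.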
Test system: MDA-MB-468 breast
Experiment: NCI tumour cell line growth inhibition, 48 h

O=C(CSc1ncc(-c2ccccc2)n1-c1ccccc1)Nc1ccc(-c2nc3ccccc3s2)cc1 showed a GI50 of 1350 nM and a TGI of 4960 nM.

Compound COC(=O)[C@]12CC[C@@H](C)[C@H](C)[C@@H]1C1=CC[C@@H]3[C@@]4(C)CC(=O)[C@H](O)[C@@](C)(CO)[C@@H]4C(=O)C[C@@]3(C)[C@]1(C)CC2 has a GI50 of 15200 nM and a TGI of 32200 nM.

COc1ccc2nc3cc(Cl)ccc3c(Nc3cc(C(C)C)c(O)cc3C)c2c1 gave a GI50 of 1560 nM and a TGI of 4600 nM.

Compound O=C1NC(=N[C@H](CO)c2ccccc2)S/C1=C\c1ccc2ncccc2c1 has a GI50 of 2060 nM and a TGI of 8970 nM.

CC(C)[C@H](C(=O)O[C@@H]1/C=C/C(=O)O[C@@H](C)CCC/C=C/[C@@H]2C[C@H](O)C[C@H]21)N(C)C gave a GI50 of 1610 nM and a TGI of 4620 nM.

CCCCNNC(=O)c1ccc(-c2cccc(F)c2F)cc1 gave a GI50 of 1710 nM and a TGI of 6060 nM.

With COc1cc(-c2nn(-c3cccc(NC(=O)CCN4CCN(C)CC4)c3)cc2-c2ccncc2)ccc1Cl the GI50 was 997 nM and the TGI was 2850 nM.

In the case of CS(=O)(=O)N1CCc2c(-c3cnc(N)nc3)nc(N3CCOCC3)nc21, the GI50 is reported as 305 nM and 264 nM and the TGI is reported as 3000 nM and 2300 nM.

N[C@@H](CSSC[C@H](N)C(=O)N1CCn2cc(-c3ccccc3)nc2[C@@H]1CC1CCCCC1)C(=O)N1CCn2cc(-c3ccccc3)nc2[C@@H]1CC1CCCCC1 showed a GI50 of 1070 nM and a TGI of 2530 nM.

Work on Fc1ccc(-c2c(-c3ccncc3)[nH]c3nccnc23)cc1 yielded a GI50 of 4480 nM and a TGI of over 21500 nM.

For Cc1[nH]n(-c2cccc(Cl)c2)c(=O)c1/C=C1\C=c2ccccc2=CC1=O, the GI50 was 17600 nM and the TGI was 74700 nM.

COc1ccc(/C=C2/CN(CCC#N)C/C(=C\c3ccc(OC)cc3)C2=O)cc1 showed a GI50 of 1390 nM and a TGI of 4950 nM.

With FC(F)(F)c1ccc(NCc2nc3ccccc3[nH]2)cc1 the GI50 was 16700 nM and the TGI was 55600 nM.

For O=C1NC(=O)C(c2c[nH]c3ccccc23)=C1c1ccccc1, the GI50 was over 25000 nM and the TGI was over 25000 nM.

CCCCOc1ccc(S(=O)(=O)N2CCN(c3nc(C)cc(N4CCOCC4)n3)CC2)cc1 was tested, and the GI50 was 2690 nM and the TGI was over 100000 nM.

In the case of CCCc1n(Cc2ccc3ccccc3n2)cc[n+]1Cc1ccc2ccccc2n1, the GI50 is reported as 232 nM and the TGI is reported as 1550 nM.

For COc1cc(Cn2c(SCC(=O)Nc3ccc(Cl)cc3)nc3ccccc3c2=O)cc(OC)c1OC, the GI50 was 7220 nM and the TGI was 42400 nM.

COC(=O)c1ccc2c(C(=Nc3ccc(N(C)C(=O)CN4CCN(C)CC4)cc3)c3ccccc3)c(O)[nH]c2c1 was tested, and the GI50 was 2130 nM and the TGI was 9780 nM.

Cn1cc(C2=C(c3c(S(C)=O)n(C)c4ccccc34)C(=O)NC2=O)c2ccccc21 (centres undefined) gave a GI50 of 6710 nM and a TGI of over 25000 nM.

In the case of CNCCN(C)Cc1cn[nH]c1-c1ccc(OC2CC(OCCC3CCOCC3)C2)cc1 (centres undefined), the GI50 is reported as 33700 nM and the TGI is reported as over 100000 nM.

In the case of N#Cc1ccc(/C=C/C(=O)c2ccccc2)cc1, the GI50 is reported as 5950 nM and 1890 nM and the TGI is reported as 21100 nM and 5440 nM.

With CNCCNc1nc2ccccc2c2c(=O)c3cccc(C)c3sc12 the GI50 was 892 nM and the TGI was 1940 nM.

Work on O=C(O)c1cn(C2CC2)c2cc(N3CCN(Cc4ccc5ccccc5c4O)CC3)c(F)cc2c1=O yielded a GI50 of 4550 nM and a TGI of over 100000 nM.

Work on COc1ccc(-c2nc3sccn3c2-c2ccnc(NCCCNS(=O)(=O)c3ccc(F)cc3)n2)cc1 yielded a GI50 of 1550 nM and a TGI of 6480 nM.

COCCOC1=C(Cl)C(=O)c2c(O)ccc(O)c2C1=O gave a GI50 of 899 nM and a TGI of 2450 nM.

Oc1cccc(-c2nc(-c3ccccc3)[nH]c2-c2ccncc2)c1 was tested, and the GI50 was 2080 nM and the TGI was 11400 nM.

CNc1ncc2cc(-c3cc(NC(=O)NCCC(C)(C)C)c(F)cc3C)c(C)nc2n1 gave a TGI of over 67100 nM.

With CN1CCN(c2ccc(Nc3ncc4cc5n(c4n3)C3(CCCCC3)CNC5=O)nc2)CC1 the GI50 was 10900 nM and the TGI was 36000 nM.

For C#Cc1ccc(-n2c(/C=C/c3ccc4ccccc4c3)nc3ncccc3c2=O)cc1, the GI50 was 963 nM and the TGI was 7770 nM.

Compound O=c1c2cc(-c3ccc(F)cc3F)ccc2n(O)c(=O)n1-c1cccc(C(F)(F)F)c1 has a GI50 of 1680 nM and a TGI of 5400 nM.

CCN1C(=O)N(CC)C2C1NN=c1s/c(=C\c3ccc(OC)cc3)c(=O)n12 (centres undefined) was tested, and the GI50 was 130 nM and the TGI was over 60800 nM.

Cc1cc(C#Cc2ccccc2)ccc1-n1c(/C=C/c2cc(O)ccc2O)nc2ccccc2c1=O showed a GI50 of 1610 nM and a TGI of 4190 nM.

For O=C(Nc1ccccc1)Nc1ccc(Cl)c(Cl)c1, the GI50 was 2830 nM and the TGI was 13900 nM.

Cc1cc(N)cc(C)c1-c1c(Br)cc(N)cc1Br was tested, and the GI50 was 2090 nM and the TGI was 6580 nM.

In the case of OCc1ccc(N(Cc2ccc(F)cc2)CC2CCC2)cc1Cl, the GI50 is reported as 184 nM and the TGI is reported as 610 nM.

With CCN(CCO)CCCOc1ccc2c(Nc3cc(CC(=O)Nc4cccc(F)c4)[nH]n3)ncnc2c1 the GI50 was 1040 nM and 109 nM and the TGI was 18900 nM.

Compound O=C1/C(=C/c2ccccc2[N+](=O)[O-])COc2ccc(O)c(O)c21 has a GI50 of 608 nM and a TGI of 2940 nM.

COc1ccc2c(c1)N(CCO)C1=C(C(=O)OC1)C2c1ccc(OC)c(OC)c1 (centres undefined) showed a GI50 of 1740 nM and a TGI of 7570 nM.

Work on CC1(O)COCCCCOc2c(CN)cccc2NC(=O)c2nc(cnc2N)-c2ccc(cc2)S(=O)(=O)C(C)(C)C1 (centres undefined) yielded a GI50 of 939 nM and a TGI of 2520 nM.

N=C1/C(=C2\Nc3ccccc3S2)CC(=O)N1c1ccc(SC(F)F)cc1 was tested, and the GI50 was over 100000 nM and the TGI was over 100000 nM.

Source: PubChem BioAssay (NCI)
